The text below walks through data of US7196112B2, “Cell adhesion inhibitors” (Biogen Idec MA Inc., priority 2004, dated 2007).

Experiment [1] concerns the target α1β1 (Homo sapiens, UniProt P05556+P56199). In words: α1β1/collagen IV cell adhesion assay (K562 transfected with human α1-integrin chain). The format is cell-based. As to conditions: adhesion format, 1 mM MnCl2. The procedure:
The ability of test compounds to block α2β1/collagen I and α1β1/collagen IV interactions were evaluated in cell adhesion assays. Collagen I and collagen IV were immobilized onto a 96-well Corning Easy Wash plate (Corning Cat. No. 25801). Human integrin-expressing cell lines (2×10^5/well) were labeled with a fluorescent compound, 2 μM BCECF-AM (Molecular Probes, Eugene, Oreg., Cat# B1150), and added with or without test compounds. After 30 minutes, the plates were washed, and bound cells quantified in a Cytofluor fluorescence plate reader. The assay buffer was TRIS-buffered saline (TBS: 24 mM TRIS, 137 mM NaCl, 2.7 mM KCl, 2 mM glucose, 0.1% BSA, pH 7.4), containing 1 mM MnCl2. The specificity of binding was controlled for using integrin specific neutralizing monoclonal antibodies. The antibodies were run at 10 μg/mL on each day of the assay and were as follows: anti-α4β1, mAb HP1/2 (Biogen); anti-α2β1, mAb 26G8 (Biogen); and α1β1, mAb AJH10 (Biogen).
The results presented in Table 3 summarize the integrin selectivity for PEGylated inhibitors. The selectivity of the PEGylated inhibitors for the four integrins indicated were tested in adhesion formats for α1β1 and α2β1, and by direct binding for α4β7. Serial dilutions of each compound were tested and IC50 values calculated from the concentration dependence of the inhibition curves. […]

Experiment [2] relates to lymphocyte count. Kind of experiment: Lymphocyte counts following inhibitor treatment (lymphocytosis). The format is in vivo, rat. As to conditions: 30 mg/kg s.c., single dose. The procedure:
Female Lewis rats were injected with a single dose of either compound H (1 mg/kg, s.c in PBS), or compound R (30 mg/kg, s.c., in TRIS/lactose) or with their respective vehicles at time 0. At each timepoint, 0.3 mL blood from triplicate animals was drawn from the jugular vein without anesthesia and collected into Capiject purple-top microtainer tubes containing EDTA (Terumo Medical Corporation #T-MQK). […] samples were analyzed for lymphocyte count using an Abbott CellDyn 3500 cell analyzer. Blood samples from the compound H-treated animals were drawn at 4 hours, 8 hours, 12 hours, and on days 1, 2, 3, 4, 5, 6, 7, 8, and 9 and for the compound R-treated animals after 2, 6, 24, and 48 h.
Administration of compounds R and H to rats produced an α4β1-integrin dependent lymphocytosis that was sustained as long as sufficient concentrations of the inhibitors were maintained in circulation. From previous studies >90% of α4β1 receptors are estimated to be occupied to maintain lymphocytosis and therefore a target concentration of greater than or equal to 10 ng/mL compound needs to be maintained (see Leone, D. R., et al. (2003) J. Pharmacol. Exp. Ther. 305:1150–1162). […] A 2–3 fold increase in lymphocyte levels was observed. […] Elevated lymphocyte levels were maintained for 6 days. By day 9 lymphocyte levels had returned to normal. […]

Experiment [3] has as its system EAE. Kind of experiment: Rat EAE model induced with myelin basic protein peptide. The format is in vivo. As to conditions: daily 30 mg/kg s.c.

A value given as a limit tells only on which side of the number the result lay.

Sequence of α1β1 (P56199 29-1179): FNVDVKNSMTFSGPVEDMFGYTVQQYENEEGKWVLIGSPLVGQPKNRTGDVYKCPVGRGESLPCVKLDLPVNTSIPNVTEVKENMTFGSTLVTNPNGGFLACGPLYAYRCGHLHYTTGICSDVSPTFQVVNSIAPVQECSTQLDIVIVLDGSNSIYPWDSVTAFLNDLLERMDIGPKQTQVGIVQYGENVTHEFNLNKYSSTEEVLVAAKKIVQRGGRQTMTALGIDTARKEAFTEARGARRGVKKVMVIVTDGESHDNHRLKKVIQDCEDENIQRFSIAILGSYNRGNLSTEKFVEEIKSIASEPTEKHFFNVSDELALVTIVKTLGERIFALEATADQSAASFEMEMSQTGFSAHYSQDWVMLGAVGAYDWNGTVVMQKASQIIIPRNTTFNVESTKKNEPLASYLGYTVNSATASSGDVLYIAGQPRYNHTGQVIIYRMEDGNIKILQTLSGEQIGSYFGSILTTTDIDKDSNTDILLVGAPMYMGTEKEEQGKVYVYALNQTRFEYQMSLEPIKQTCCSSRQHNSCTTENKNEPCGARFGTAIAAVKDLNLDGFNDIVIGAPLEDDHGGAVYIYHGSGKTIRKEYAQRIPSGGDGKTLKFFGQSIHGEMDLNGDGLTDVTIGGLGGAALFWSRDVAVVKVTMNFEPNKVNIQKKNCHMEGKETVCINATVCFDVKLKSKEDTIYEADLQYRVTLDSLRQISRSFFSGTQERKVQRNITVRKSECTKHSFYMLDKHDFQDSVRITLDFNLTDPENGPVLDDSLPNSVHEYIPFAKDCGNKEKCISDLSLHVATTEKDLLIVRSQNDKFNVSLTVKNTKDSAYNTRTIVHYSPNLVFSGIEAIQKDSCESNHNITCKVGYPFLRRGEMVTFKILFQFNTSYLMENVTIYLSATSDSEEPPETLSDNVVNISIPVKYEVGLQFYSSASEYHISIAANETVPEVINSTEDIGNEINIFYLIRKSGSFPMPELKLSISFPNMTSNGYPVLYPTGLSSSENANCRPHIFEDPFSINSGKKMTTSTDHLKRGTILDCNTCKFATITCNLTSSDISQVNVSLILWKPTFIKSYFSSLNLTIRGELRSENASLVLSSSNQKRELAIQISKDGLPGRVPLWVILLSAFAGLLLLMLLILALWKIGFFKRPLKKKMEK
Sequence of α1β1 (P05556 21-798): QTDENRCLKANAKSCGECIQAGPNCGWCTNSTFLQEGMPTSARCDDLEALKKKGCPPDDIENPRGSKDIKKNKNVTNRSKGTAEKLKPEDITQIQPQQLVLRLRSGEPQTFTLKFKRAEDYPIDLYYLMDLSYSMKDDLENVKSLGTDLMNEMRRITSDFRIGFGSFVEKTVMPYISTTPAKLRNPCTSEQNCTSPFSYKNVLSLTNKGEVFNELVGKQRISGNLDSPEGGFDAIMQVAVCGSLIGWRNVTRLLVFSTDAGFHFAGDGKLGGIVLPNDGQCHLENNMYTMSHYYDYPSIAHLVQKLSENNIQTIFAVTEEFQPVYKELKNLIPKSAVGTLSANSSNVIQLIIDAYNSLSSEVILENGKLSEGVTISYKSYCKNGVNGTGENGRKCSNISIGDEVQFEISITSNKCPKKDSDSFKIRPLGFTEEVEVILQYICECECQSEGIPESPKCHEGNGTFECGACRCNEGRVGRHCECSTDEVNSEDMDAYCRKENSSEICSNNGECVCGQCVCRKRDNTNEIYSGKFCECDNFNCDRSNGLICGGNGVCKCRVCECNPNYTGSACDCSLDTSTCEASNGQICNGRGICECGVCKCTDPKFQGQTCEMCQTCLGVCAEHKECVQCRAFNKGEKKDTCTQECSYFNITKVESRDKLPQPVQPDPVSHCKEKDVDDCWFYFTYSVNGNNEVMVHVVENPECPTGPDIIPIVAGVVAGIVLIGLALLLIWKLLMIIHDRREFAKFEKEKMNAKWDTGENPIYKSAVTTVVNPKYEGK

On to `Cc1ccccc1NC(=O)Nc1ccc(CC(=O)N(C)[C@@H](CC(C)C)C(=O)NCC[C@H](NC(=O)C2CCCN2S(=O)(=O)c2ccccc2)C(=O)O)cc1` (stereo partly drawn) [Compound B, 2S-[(1-benzenesulfonyl-pyrrolidine-2S-carbonyl)-amino]-4-[4-methyl-2S-(methyl-{2-[4-(3-o-tolyl-ureido)-phenyl]-acetyl}-amino)-pentanoylamino]-butyric acid], for which the half-maximal inhibitory concentration (IC50) (as a rule, the concentration that gives 50% inhibition) in experiment [1] is above 10 µM.
Turning to `Cc1ccccc1NC(=O)Nc1ccc(CC(=O)N(C)[C@@H](CC(C)C)C(=O)NCC[C@H](NC(=O)[C@@H]2CCCN2S(=O)(=O)c2cc(Cl)cc(Cl)c2)C(=O)O)cc1` [Compound R, 2S-{[1-(3,5-dichloro-benzenesulfonyl)-pyrrolidine-2S-carbonyl]-amino}-4-[4-methyl-2S-(methyl-{2-[4-(3-o-tolyl-ureido)-phenyl]-acetyl}-amino)-pentanoylamino]-butyric acid], in experiment [2], the “day by which lymphocyte levels returned to normal” value is at most 2 days and the duration of lymphocytosis entry is “one”. The “mean paralytic score reached” value in experiment [3] turned out to be 3.0.
